Laboratory results reported in ChEMBL document CHEMBL4229379, “Synthesis and structure-activity relationship of novel bisindole amidines active against MDR Gram-positive and Gram-negative bacteria” (Eur J Med Chem, 2018).
Converted amounts (≈) assume the structure as drawn.

Assays:
[1] = tested on: Staphylococcus epidermidis; test: Antibacterial activity against methicillin-sensitive Staphylococcus epidermidis ATCC 12228 after 18 hrs by CLSI broth microdilution method; type: functional; settings: ATCC 12228, 18 h
[2] = tested on: Staphylococcus epidermidis; test: Antibacterial activity against methicillin-resistant Staphylococcus epidermidis 12-8 after 18 hrs by CLSI broth microdilution method; type: functional; settings: 12-8, 18 h
Staphylococcus aureus [3] = test: Antibacterial activity against methicillin-sensitive Staphylococcus aureus ATCC 29213 after 18 hrs by CLSI broth microdilution method; type: functional; settings: ATCC 29213, 18 h
Staphylococcus aureus [4] = test: Antibacterial activity against methicillin-resistant Staphylococcus aureus 12-33 after 18 hrs by CLSI broth microdilution method; type: functional; settings: 12-33, 18 h
Enterococcus faecalis [5] = test: Antibacterial activity against vancomycin-sensitive Enterococcus faecalis ATCC 29212 after 18 hrs by CLSI broth microdilution method; type: functional; settings: ATCC 29212, 18 h
Enterococcus faecalis [6] = test: Antibacterial activity against vancomycin-resistant Enterococcus faecalis 09-9 after 18 hrs by CLSI broth microdilution method; type: functional; settings: 09-9, 18 h
Enterococcus faecium [7] = test: Antibacterial activity against vancomycin-resistant Enterococcus faecium ATCC 700221 after 18 hrs by CLSI broth microdilution method; type: functional; settings: ATCC 700221, 18 h
Enterococcus faecium [8] = test: Antibacterial activity against vancomycin-sensitive Enterococcus faecium 12-3 after 18 hrs by CLSI broth microdilution method; type: functional; settings: 12-3, 18 h
Escherichia coli [9] = test: Antibacterial activity against extended-spectrum beta-lactamase deficient Escherichia coli ATCC 25922 after 18 hrs by CLSI broth microdilution method; type: functional; settings: ATCC 25922, 18 h
Escherichia coli [10] = test: Antibacterial activity against extended-spectrum beta-lactamase harboring Escherichia coli 12-15 after 18 hrs by CLSI broth microdilution method; type: functional; settings: 12-15, 18 h
Klebsiella pneumoniae [11] = test: Antibacterial activity against extended-spectrum beta-lactamase harboring Klebsiella pneumoniae ATCC 700603 after 18 hrs by CLSI broth microdilution method; type: functional; settings: Klebsiella pneumoniae, 700603, 18 h
Klebsiella pneumoniae [12] = test: Antibacterial activity against new delhi metallo-beta-lactamase-1 harboring Klebsiella pneumoniae ATCC BAA-2146 after 18 hrs by CLSI broth microdilution method; type: functional; settings: ATCC BAA-2146, 18 h
Klebsiella pneumoniae [13] = test: Antibacterial activity against extended-spectrum beta-lactamase harboring Klebsiella pneumoniae 12-8 after 18 hrs by CLSI broth microdilution method; type: functional; settings: 12-8, 18 h
Pseudomonas aeruginosa [14] = test: Antibacterial activity against Pseudomonas aeruginosa ATCC 27853 after 18 hrs by CLSI broth microdilution method; type: functional; settings: ATCC 27853, 18 h
[15] = tested on: Acinetobacter calcoaceticus; test: Antibacterial activity against Acinetobacter calcoaceticus ATCC 19606 after 18 hrs by CLSI broth microdilution method; type: functional; settings: ATCC 19606, 18 h
Enterobacter cloacae = test: Antibacterial activity against Enterobacter cloacae ATCC 43560 after 18 hrs by CLSI broth microdilution method; type: functional; settings: ATCC 43560, 18 h
Proteus mirabilis = test: Antibacterial activity against Proteus mirabilis 12-6 after 18 hrs by CLSI broth microdilution method; type: functional; settings: 12-6, 18 h
[16] = Cytotoxicity against HEK293T cells assessed as reduction in cell viability after 48 hrs by MTS assay; type: cell-based, HEK-293T; settings: human
[17] = tested on: Staphylococcus epidermidis; test: Antibacterial activity against methicillin-sensitive Staphylococcus epidermidis 12-6 after 18 hrs by CLSI broth microdilution method; type: functional; settings: 12-6, 18 h
Staphylococcus aureus [18] = test: Antibacterial activity against methicillin-resistant Staphylococcus aureus ATCC 33591 after 18 hrs by CLSI broth microdilution method; type: functional; settings: ATCC 33591, 18 h
Staphylococcus aureus [19] = test: Antibacterial activity against methicillin-sensitive Staphylococcus aureus 15 after 18 hrs by CLSI broth microdilution method; type: functional; settings: Staphylococcus aureus, 15, 18 h
Staphylococcus aureus [20] = test: Antibacterial activity against methicillin-sensitive Staphylococcus aureus 12-28 after 18 hrs by CLSI broth microdilution method; type: functional; settings: 12-28, 18 h
Enterococcus faecalis [21] = test: Antibacterial activity against vancomycin-resistant Enterococcus faecalis ATCC 51299 after 18 hrs by CLSI broth microdilution method; type: functional; settings: ATCC 51299, 18 h
Enterococcus faecalis [22] = test: Antibacterial activity against vancomycin-sensitive Enterococcus faecalis 12-5 after 18 hrs by CLSI broth microdilution method; type: functional; settings: 12-5, 18 h
Enterococcus faecium [23] = test: Antibacterial activity against vancomycin-resistant Enterococcus faecium 12-1 after 18 hrs by CLSI broth microdilution method; type: functional; settings: 12-1, 18 h
Escherichia coli [24] = test: Antibacterial activity against extended-spectrum beta-lactamase deficient Escherichia coli 1515 after 18 hrs by CLSI broth microdilution method; type: functional; settings: Escherichia coli, 1515, 18 h
Escherichia coli [25] = test: Antibacterial activity against extended-spectrum beta-lactamase deficient Escherichia coli 12-14 after 18 hrs by CLSI broth microdilution method; type: functional; settings: 12-14, 18 h
Klebsiella pneumoniae [26] = test: Antibacterial activity against extended-spectrum beta-lactamase deficient Klebsiella pneumoniae 7 after 18 hrs by CLSI broth microdilution method; type: functional; settings: Klebsiella pneumoniae, 7, 18 h
Klebsiella pneumoniae [27] = test: Antibacterial activity against extended-spectrum beta-lactamase deficient Klebsiella pneumoniae 12-4 after 18 hrs by CLSI broth microdilution method; type: functional; settings: 12-4, 18 h
Pseudomonas aeruginosa [28] = test: Antibacterial activity against Pseudomonas aeruginosa PAO1 after 18 hrs by CLSI broth microdilution method; type: functional; settings: PAO1, 18 h
Pseudomonas aeruginosa [29] = test: Antibacterial activity against Pseudomonas aeruginosa 12-16 after 18 hrs by CLSI broth microdilution method; type: functional; settings: 12-16, 18 h
Klebsiella aerogenes = test: Antibacterial activity against Enterobacter aerogenes ATCC 13048 after 18 hrs by CLSI broth microdilution method; type: functional; settings: ATCC 13048, 18 h
Serratia marcescens = test: Antibacterial activity against Serratia marcescens ATCC 21074 after 18 hrs by CLSI broth microdilution method; type: functional; settings: ATCC 21074, 18 h
Providencia rettgeri = test: Antibacterial activity against Providencia rettgeri ATCC 31052 after 18 hrs by CLSI broth microdilution method; type: functional; settings: ATCC 31052, 18 h
Proteus vulgaris = test: Antibacterial activity against Proteus vulgaris ATCC 29905 after 18 hrs by CLSI broth microdilution method; type: functional; settings: ATCC 29905, 18 h
[30] = tested on: Stenotrophomonas maltophilia; test: Antibacterial activity against Stenotrophomonas maltophilia ATCC 13636 after 18 hrs by CLSI broth microdilution method; type: functional; settings: ATCC 13636, 18 h
Citrobacter freundii = test: Antibacterial activity against Citrobacter freundii ATCC 43864 after 18 hrs by CLSI broth microdilution method; type: functional; settings: ATCC 43864, 18 h

SMILES | MIC [1] [µg/mL] | MIC [2] [µg/mL] | MIC (Staphylococcus aureus [3]) [µg/mL] | MIC (Staphylococcus aureus [4]) [µg/mL] | MIC (Enterococcus faecalis [5]) [µg/mL] | MIC (Enterococcus faecalis [6]) [µg/mL] | MIC (Enterococcus faecium [7]) [µg/mL] | MIC (Enterococcus faecium [8]) [µg/mL] | MIC (Escherichia coli [9]) [µg/mL] | MIC (Escherichia coli [10]) [µg/mL] | MIC (Klebsiella pneumoniae [11]) [µg/mL] | MIC (Klebsiella pneumoniae [12]) [µg/mL] | MIC (Klebsiella pneumoniae [13]) [µg/mL] | MIC (Pseudomonas aeruginosa [14]) [µg/mL] | MIC [15] [µg/mL] | MIC (Enterobacter cloacae) [µg/mL] | MIC (Proteus mirabilis) [µg/mL] | CC50 at 48 h [16] [µg/mL] | MIC [17] [µg/mL] | MIC (Staphylococcus aureus [18]) [µg/mL] | further results
CCC(CC)NC(=N)c1ccc2cc(-c3ccc(-c4cc5ccc(C(=N)NC(CC)CC)cc5[nH]4)cc3)[nH]c2c1 | 0.5 (≈ 0.939 µM) | 0.5 (≈ 0.939 µM) | 1 (≈ 1.88 µM) | 1 (≈ 1.88 µM) | 2 (≈ 3.75 µM) | 4 (≈ 7.51 µM) | 2 (≈ 3.75 µM) | 2 (≈ 3.75 µM) | 8 (≈ 15 µM) | 8 (≈ 15 µM) | 16 (≈ 30 µM) | 8 (≈ 15 µM) | 8 (≈ 15 µM) | 16 (≈ 30 µM) | 16 (≈ 30 µM) | 8 (≈ 15 µM) | 16 (≈ 30 µM) | 3.42 (≈ 6.41 µM) | 0.5 (≈ 0.939 µM) | 1 (≈ 1.88 µM) | MIC (Staphylococcus aureus [19]): 2 µg/mL (≈ 3.75 µM); MIC (Staphylococcus aureus [20]): 2 µg/mL (≈ 3.75 µM); MIC (Enterococcus faecalis [21]): 4 µg/mL (≈ 7.51 µM); MIC (Enterococcus faecalis [22]): 4 µg/mL (≈ 7.51 µM); MIC (Enterococcus faecium [23]): 2 µg/mL (≈ 3.75 µM); MIC (Escherichia coli [24]): 8 µg/mL (≈ 15 µM); MIC (Escherichia coli [25]): 8 µg/mL (≈ 15 µM); MIC (Klebsiella pneumoniae [26]): 8 µg/mL (≈ 15 µM); MIC (Klebsiella pneumoniae [27]): 8 µg/mL (≈ 15 µM); MIC (Pseudomonas aeruginosa [28]): 64 µg/mL (≈ 120 µM); MIC (Pseudomonas aeruginosa [29]): 32 µg/mL (≈ 60.1 µM); MIC (Klebsiella aerogenes): 8 µg/mL (≈ 15 µM); MIC (Serratia marcescens): 32 µg/mL (≈ 60.1 µM); MIC (Providencia rettgeri): 8 µg/mL (≈ 15 µM); MIC (Proteus vulgaris): 8 µg/mL (≈ 15 µM); MIC [30]: 16 µg/mL (≈ 30 µM); MIC (Citrobacter freundii): 8 µg/mL (≈ 15 µM)
COCCNC(=N)c1ccc2cc(-c3cncc(-c4cc5ccc(C(=N)NCCOC)cc5[nH]4)c3)[nH]c2c1 | 64 (≈ 126 µM) | > 64 | > 64 | > 64 | > 64 | > 64 | > 64 | > 64 | > 64 | > 64 | > 64 | > 64 | > 64 | > 64 | > 64 | > 64 | > 64 | 28 (≈ 54.9 µM) | 64 (≈ 126 µM) | > 64 | MIC (Staphylococcus aureus [19]): > 64 µg/mL; MIC (Staphylococcus aureus [20]): > 64 µg/mL; MIC (Enterococcus faecalis [21]): > 64 µg/mL; MIC (Enterococcus faecalis [22]): > 64 µg/mL; MIC (Enterococcus faecium [23]): > 64 µg/mL; MIC (Escherichia coli [24]): > 64 µg/mL; MIC (Escherichia coli [25]): > 64 µg/mL; MIC (Klebsiella pneumoniae [26]): > 64 µg/mL; MIC (Klebsiella pneumoniae [27]): > 64 µg/mL; MIC (Pseudomonas aeruginosa [28]): > 64 µg/mL; MIC (Pseudomonas aeruginosa [29]): > 64 µg/mL; MIC (Klebsiella aerogenes): > 64 µg/mL; MIC (Serratia marcescens): > 64 µg/mL; MIC (Providencia rettgeri): > 64 µg/mL; MIC (Proteus vulgaris): > 64 µg/mL; MIC [30]: > 64 µg/mL; MIC (Citrobacter freundii): > 64 µg/mL
